What all share (assay): relative viability (nuclei count vs DMSO), 5 days (fraction); higher = more cells survive
Compound in the assay “Zosuquidar + Dasatinib”: O[C@@H](COc1cccc2ncccc12)CN1CCN([C@@H]2c3ccccc3[C@@H]3[C@H](c4ccccc42)C3(F)F)CC1 [Zosuquidar] + Cc1nc(Nc2ncc(C(=O)Nc3c(C)cccc3Cl)s2)cc(N2CCN(CCO)CC2)n1 [Dasatinib] (partner 0.075 µM)
In a few lines:
(§1)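 Relative viability is defined as nuclei in treated wells over nuclei in vehicle wells. Duplicate plates were run and medians reported. Lung cancer cell lines in 1536-well plates were dosed by pin tool one day after seeding, with one drug or with a fixed anchor-drug dose plus five library-drug doses (not always all listed) in √10 steps, and nuclei were counted after 5 days.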

Compound in the assay “Kobe2602 + Pemetrexed”: C1=CC(=CC=C1NC(=S)NNC2=C(C=C(C=C2[N+](=O)[O-])C(F)(F)F)[N+](=O)[O-])F [Kobe2602] + Nc1nc2[nH]cc(CCc3ccc(C(=O)N[C@@H](CCC(=O)O)C(=O)O)cc3)c2c(=O)[nH]1 [Pemetrexed] (partner 0.2 µM)
Put shortly:
as §1

Compound in the assay “Zosuquidar + Pemetrexed”: O[C@@H](COc1cccc2ncccc12)CN1CCN([C@@H]2c3ccccc3[C@@H]3[C@H](c4ccccc42)C3(F)F)CC1 [Zosuquidar] + Nc1nc2[nH]cc(CCc3ccc(C(=O)N[C@@H](CCC(=O)O)C(=O)O)cc3)c2c(=O)[nH]1 [Pemetrexed] (partner 0.2 µM)
Put shortly: as §1

Compound in the assay “Zosuquidar + Palbociclib”: O[C@@H](COc1cccc2ncccc12)CN1CCN([C@@H]2c3ccccc3[C@@H]3[C@H](c4ccccc42)C3(F)F)CC1 [Zosuquidar] + CC(=O)c1c(C)c2cnc(Nc3ccc(N4CCNCC4)cn3)nc2n(C2CCCC2)c1=O [Palbociclib] (partner 0.5 µM)
Put shortly: as §1

As to UMC-11, the relative viability with Zosuquidar + Dasatinib (first compound 0.01 µM) was 0.428; with Zosuquidar + Dasatinib (first compound 0.03162 µM), 0.535; with Zosuquidar + Dasatinib (first compound 0.1 µM) it was 0.455; with Zosuquidar + Dasatinib (first compound 0.3162 µM) it was 0.486; with Zosuquidar + Dasatinib (first compound 1 µM), 0.518; in the assay with Kobe2602 + Pemetrexed (first compound 0.2 µM), 0.805. Moreover, the relative viability with Kobe2602 + Pemetrexed (first compound 0.6325 µM) was 0.83; with Kobe2602 + Pemetrexed (first compound 2 µM), 0.822; with Kobe2602 + Pemetrexed (first compound 6.325 µM), 0.788; with Kobe2602 + Pemetrexed (first compound 20 µM) it was 0.779; with Zosuquidar + Pemetrexed (first compound 0.01 µM), 0.739; with Zosuquidar + Pemetrexed (first compound 0.03162 µM), 0.739. Moreover, the relative viability with Zosuquidar + Pemetrexed (first compound 0.1 µM) is 0.894; in the assay with Zosuquidar + Pemetrexed (first compound 0.3162 µM) it was 0.858; with Zosuquidar + Pemetrexed (first compound 1 µM) it was 0.86; with Zosuquidar + Palbociclib (first compound 0.01 µM), 0.313; in the assay with Zosuquidar + Palbociclib (first compound 0.03162 µM) it was 0.305; with Zosuquidar + Palbociclib (first compound 0.1 µM) it was 0.338. The figures for the relative viability in the assay with Zosuquidar + Palbociclib (first compound 0.3162 µM) and with Zosuquidar + Palbociclib (first compound 1 µM) were 0.341 and 0.296, respectively.

The values are drawn from the supplement of paper PMC10307832.
